From patent publication US7674819B2 (Warner-Lambert Company LLC, priority 2005, dated 2010)
Where two headings read alike, the source gives them in different places.

Molecular target: T1, hAR (Homo sapiens, UniProt P10275)
T1 sequence (P10275 1-920): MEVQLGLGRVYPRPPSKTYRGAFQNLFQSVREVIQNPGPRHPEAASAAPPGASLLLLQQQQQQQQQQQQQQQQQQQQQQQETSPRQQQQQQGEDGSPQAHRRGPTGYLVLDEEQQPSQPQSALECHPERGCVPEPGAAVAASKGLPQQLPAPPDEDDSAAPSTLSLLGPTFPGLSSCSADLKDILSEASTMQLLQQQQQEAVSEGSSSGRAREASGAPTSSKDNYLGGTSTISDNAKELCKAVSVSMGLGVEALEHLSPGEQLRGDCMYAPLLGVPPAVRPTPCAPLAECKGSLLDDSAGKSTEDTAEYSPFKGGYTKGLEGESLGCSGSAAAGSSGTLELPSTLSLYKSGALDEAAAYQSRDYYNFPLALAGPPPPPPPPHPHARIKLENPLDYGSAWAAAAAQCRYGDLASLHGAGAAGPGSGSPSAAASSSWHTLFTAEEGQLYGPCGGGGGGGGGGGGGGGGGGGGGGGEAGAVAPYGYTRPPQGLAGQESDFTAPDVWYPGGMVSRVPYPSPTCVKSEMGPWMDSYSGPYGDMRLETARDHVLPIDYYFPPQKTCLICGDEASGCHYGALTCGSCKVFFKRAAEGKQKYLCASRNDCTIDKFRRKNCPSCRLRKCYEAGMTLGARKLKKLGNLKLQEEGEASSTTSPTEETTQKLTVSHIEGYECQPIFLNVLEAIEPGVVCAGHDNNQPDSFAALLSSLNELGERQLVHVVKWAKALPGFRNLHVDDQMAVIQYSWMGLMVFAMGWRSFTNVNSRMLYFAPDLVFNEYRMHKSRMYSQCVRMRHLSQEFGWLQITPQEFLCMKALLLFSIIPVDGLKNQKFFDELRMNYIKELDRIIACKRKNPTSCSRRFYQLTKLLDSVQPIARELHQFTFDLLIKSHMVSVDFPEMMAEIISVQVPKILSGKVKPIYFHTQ
Test: Competitive binding of 3H-DHT to baculovirus/Sf9 generated hAR extracts
Conditions: one hour at 4° C., mean of multiple tests
Protocol: The description below describes how the assay was carried out.
Competitive binding analysis was performed on baculovirus/Sf9 generated hAR extracts in the presence or absence of different concentrations of test agent and a fixed concentration of ^3H-dihydrotestosterone (^3H-DHT) as tracer. This binding assay method is a modification of a protocol previously described (Liao S., et. al. J. Steroid Biochem. 20:11-17 1984). Briefly, progressively decreasing concentrations of compounds are incubated in the presence of hAR extract (Chang et al. P.N.A.S. Vol. 89, pp. […], 1992), hydroxylapatite, and 1 nM^3H-DHT for one hour at 4° C. Subsequently, the binding reactions are washed three times to completely remove excess unbound ^3H-DHT. hAR bound ^3H-DHT levels are determined in the presence of compounds (i.e. competitive binding) and compared to levels bound when no competitor is present (i.e. maximum binding). Compound binding affinity to the hAR is expressed as the concentration of compound at which one half of the maximum binding is inhibited.

[1] = concentration at which one half of maximum binding of 1 nM 3H-DHT to hAR is inhibited, read-out: IC50
[2] = IC50, concentration at which one half of maximum binding of 1 nM 3H-DHT to hAR is inhibited

## Cc1n[nH]c(C)c1S(=O)(=O)N1CC(C)(C)C(Oc2ccc(C#N)c(C(F)(F)F)c2)C1=O (stereo not shown) [Example 77, 4-[1-(3,5-Dimethyl-1H-pyrazole-4-sulfonyl)-4,4-dimethyl-2-oxo-pyrrolidin-3-yloxy]-2-trifluoromethyl-benzonitrile]
[1]
  IC50: 246 nM

## CC(C)S(=O)(=O)N1CC(C)(C)C(Oc2ccc(C#N)c(C(F)(F)F)c2)C1=O (stereo not shown) [Example 79, 4-[4,4-Dimethyl-2-oxo-1-(propane-2-sulfonyl)-pyrrolidin-3-yloxy]-2-trifluoromethyl-benzonitrile]
[1]
  IC50: 305 nM

## Cc1ccc(S(=O)(=O)N2CC(C)(C)C(Oc3ccc(C#N)c(C(F)(F)F)c3)C2=O)s1 (stereo not shown) [Example 85, 4-[4,4-Dimethyl-1-(5-methyl-thiophene-2-sulfonyl)-2-oxo-pyrrolidin-3-yloxy]-2-trifluoromethyl-benzonitrile]
[1]
  IC50: 233 nM

## Cc1nc(C)c(S(=O)(=O)N2CC(C)(C)C(Oc3ccc(C#N)c(C(F)(F)F)c3)C2=O)s1 (stereo not shown) [Example 89, 4-[1-(2,4-Dimethyl-thiazole-5-sulfonyl)-4,4-dimethyl-2-oxo-pyrrolidin-3-yloxy]-2-trifluoromethyl-benzonitrile]
[1]
  IC50: 281 nM

## CCCCS(=O)(=O)N1CC(C)(C)C(Oc2ccc(C#N)c(C(F)(F)F)c2)C1=O (stereo not shown) [Example 90, 4-[1-(Butane-1-sulfonyl)-4,4-dimethyl-2-oxo-pyrrolidin-3-yloxy]-2-trifluoromethyl-benzonitrile]
[1]
  IC50: 309 nM

## CC1(C)CN(S(=O)(=O)c2ccccc2C#N)C(=O)C1Oc1ccc(C#N)c(C(F)(F)F)c1 (stereo not shown) [Example 91, 4-[1-(2-Cyano-benzenesulfonyl)-4,4-dimethyl-2-oxo-pyrrolidin-3-yloxy]-2-trifluoromethyl-benzonitrile]
[1]
  IC50: 508 nM

## Cc1cc(S(=O)(=O)N2CC(C)(C)C(Oc3ccc(C#N)c(C(F)(F)F)c3)C2=O)c(C)s1 (stereo not shown) [Example 92, 4-[1-(2,5-Dimethyl-thiophene-3-sulfonyl)-4,4-dimethyl-2-oxo-pyrrolidin-3-yloxy]-2-trifluoromethyl-benzonitrile]
[1]
  IC50: 334 nM

## COC(=O)c1ccc(S(=O)(=O)N2CC(C)(C)C(Oc3ccc(C#N)c(C(F)(F)F)c3)C2=O)o1 (stereo not shown) [Example 100A, 5-[3-(4-Cyano-3-trifluoromethyl-phenoxy)-4,4-dimethyl-2-oxo-pyrrolidine-1-sulfonyl]-furan-2-carboxylic acid methyl ester]
[1]
  IC50: 242 nM

## COc1cc(OC2C(=O)N(S(C)(=O)=O)CC2(C)C)ccc1C#N (stereo not shown) [Example 100D, 4-(1-Methanesulfonyl-4,4-dimethyl-2-oxo-pyrrolidin-3-yloxy)-2-methoxy-benzonitrile]
[1]
  IC50: 555 nM

## CCC(CC)C(=O)N1CC(C)(C)C(Oc2ccc(C#N)c(C(F)(F)F)c2)C1=O (stereo not shown) [Example 100E, 4-[1-(2-Ethyl-butyryl)-4,4-dimethyl-2-oxo-pyrrolidin-3-yloxy]-2-trifluoromethyl-benzonitrile]
[1]
  IC50: 372 nM

## CC1(C)CN(C2CCC2)C(=O)C1Oc1ccc(C#N)c(C(F)(F)F)c1 (stereo not shown) [Example 100F, 4-(1-Cyclobutyl-4,4-dimethyl-2-oxo-pyrrolidin-3-yloxy)-2-trifluoromethyl-benzonitrile]
[1]
  IC50: 243 nM

## CCCC(=O)N1CC(C)(C)C(Oc2ccc(C#N)c(C(F)(F)F)c2)C1=O (stereo not shown) [Example 102, 4-(1-Butyryl-4,4-dimethyl-2-oxo-pyrrolidin-3-yloxy)-2-trifluoromethyl-benzonitrile]
[1]
  IC50: 418 nM

## Cc1noc(C)c1C(=O)N1CC(C)(C)C(Oc2ccc(C#N)c(C(F)(F)F)c2)C1=O (stereo not shown) [Example 106, 4-[1-(3,5-Dimethyl-isoxazole-4-carbonyl)-4,4-dimethyl-2-oxo-pyrrolidin-3-yloxy]-2-trifluoromethyl-benzonitrile]
[1]
  IC50: 342 nM

## CC1(C)CN(C(=O)c2cccs2)C(=O)C1Oc1ccc(C#N)c(C(F)(F)F)c1 (stereo not shown) [Example 108, 4-[4,4-Dimethyl-2-oxo-1-(thiophene-2-carbonyl)-pyrrolidin-3-yloxy]-2-trifluoromethyl-benzonitrile]
[1]
  IC50: 370 nM

## Cc1ccccc1-c1nnc(CN2CC(C)(C)C(Oc3ccc(C#N)c(C(F)(F)F)c3)C2=O)o1 (stereo not shown) [Example 111, 4-[4,4-Dimethyl-2-oxo-1-(5-o-tolyl-[1,3,4]oxadiazol-2-ylmethyl)-pyrrolidin-3-yloxy]-2-trifluoromethyl-benzonitrile]
[1]
  IC50: 239 nM

## CC1(C)CN(Cc2nnc(-c3cccc(Cl)c3)o2)C(=O)C1Oc1ccc(C#N)c(C(F)(F)F)c1 (stereo not shown) [Example 120, 4-{1-[5-(3-Chloro-phenyl)-[1,3,4]oxadiazol-2-ylmethyl]-4,4-dimethyl-2-oxo-pyrrolidin-3-yloxy}-2-trifluoromethyl-benzonitrile]
[1]
  IC50: 347 nM

## Cc1cccc(-c2nnc(CN3CC(C)(C)C(Oc4ccc(C#N)c(C(F)(F)F)c4)C3=O)o2)c1 (stereo not shown) [Example 122, 4-[4,4-Dimethyl-2-oxo-1-(5-m-tolyl-[1,3,4]oxadiazol-2-ylmethyl)-pyrrolidin-3-yloxy]-2-trifluoromethyl-benzonitrile]
[1]
  IC50: 271 nM

## CCOc1cccc(-c2nnc(CN3CC(C)(C)C(Oc4ccc(C#N)c(C(F)(F)F)c4)C3=O)o2)c1 (stereo not shown) [Example 124, 4-{1-[5-(3-Ethoxy-phenyl)-[1,3,4]oxadiazol-2-ylmethyl]-4,4-dimethyl-2-oxo-pyrrolidin-3-yloxy}-2-trifluoromethyl-benzonitrile]
[1]
  IC50: 404 nM

## CC1(C)CN(Cc2nnc(-c3ccc(Cl)cc3)o2)C(=O)C1Oc1ccc(C#N)c(C(F)(F)F)c1 (stereo not shown) [Example 125, 4-{1-[5-(4-Chloro-phenyl)-[1,3,4]oxadiazol-2-ylmethyl]-4,4-dimethyl-2-oxo-pyrrolidin-3-yloxy}-2-trifluoromethyl-benzonitrile]
[1]
  IC50: 250 nM

## CC(c1nnc(-c2ccccc2)o1)N1CC(C)(C)C(Oc2ccc(C#N)c(C(F)(F)F)c2)C1=O (stereo not shown) [Example 128, 4-[4,4-Dimethyl-2-oxo-1-[1-(5-phenyl-[1,3,4]oxadiazol-2-yl)-ethyl]-pyrrolidin-3-yloxy]-2-trifluoromethyl-benzonitrile]
[2]
  IC50: 82 nM

## Cc1ccc(-c2nnc(C(C)N3CC(C)(C)C(Oc4ccc(C#N)c(C(F)(F)F)c4)C3=O)o2)cc1 (stereo not shown) [Example 129, 4-[4,4-Dimethyl-2-oxo-1-[1-(5-p-tolyl-[1,3,4]oxadiazol-2-yl)-ethyl]-pyrrolidin-3-yloxy]-2-trifluoromethyl-benzonitrile]
[2]
  IC50: 63 nM

## CC(c1nnc(-c2ccc(O)cc2O)o1)N1CC(C)(C)C(Oc2ccc(C#N)c(C(F)(F)F)c2)C1=O (stereo not shown) [Example 132, 4-(1-{1-[5-(2,4-dihydroxy-phenyl)-[1,3,4]oxadiazol-2-yl]-ethyl}-4,4-dimethyl-2-oxo-pyrrolidin-3-yloxy)-2-trifluoromethyl-benzonitrile]
[2]
  IC50: 52 nM

## COc1ccccc1-c1nnc(C(C)N2CC(C)(C)C(Oc3ccc(C#N)c(C(F)(F)F)c3)C2=O)o1 (stereo not shown) [Example 133, 4-(1-{1-[5-(2-methoxy-phenyl)-[1,3,4]oxadiazol-2-yl]-ethyl}-4,4-dimethyl-2-oxo-pyrrolidin-3-yloxy)-2-trifluoromethyl-benzonitrile]
[2]
  IC50: 60 nM

## COc1cccc(-c2nnc(C(C)N3CC(C)(C)C(Oc4ccc(C#N)c(C(F)(F)F)c4)C3=O)o2)c1 (stereo not shown) [Example 134, 4-(1-{1-[5-(3-methoxy-phenyl)-[1,3,4]oxadiazol-2-yl]-ethyl}-4,4-dimethyl-2-oxo-pyrrolidin-3-yloxy)-2-trifluoromethyl-benzonitrile]
[2]
  IC50: 76 nM

## COc1ccc(-c2nnc(C(C)N3CC(C)(C)C(Oc4ccc(C#N)c(C(F)(F)F)c4)C3=O)o2)cc1 (stereo not shown) [Example 135, 4-(1-{1-[5-(4-methoxy-phenyl)-[1,3,4]oxadiazol-2-yl]-ethyl}-4,4-dimethyl-2-oxo-pyrrolidin-3-yloxy)-2-trifluoromethyl-benzonitrile]
[2]
  IC50: 44 nM
